Results taken from the supplement of paper PMC10627819.

Assays:
[1] = test system: S. aureus Newman; assay: Bliss interaction score (quartile over a dose matrix) (fitness difference); higher = more antagonism (negative = synergy)
Summary of the method: (§1)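 Each plate was normalised to the robust mean of its own no-drug wells, using OD595 at entry into stationary phase, with values capped at 1. This normalised growth is the fitness value. The Bliss score is the difference between observed and product-expected fitness, with single-drug fitness inferred from the combination data and quartiles taken over technical, biological and donor/recipient replicates.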

[2] = test system: S. aureus DSM 20231; assay: as above
Summary of the method: as §1

[3] = test system: B. subtilis 168; assay: as above
Summary of the method: as §1

[4] = test system: S. pneumoniae D39V; assay: as above
Summary of the method: as §1

[5] = test system: S. aureus Newman; assay: fitness (endpoint OD595 vs no drug) (fraction); higher = more growth
Summary of the method: (§2)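 With the first reading as background, OD595 was measured every 30 min for 14 h in 384-well plates kept at 37 °C and inoculated at OD595 0.01. TSB, LB Lennox or CY was the medium. Fitness is the optical density at the transition into stationary phase divided by the robust mean of no-drug control wells, with a cap of 1.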

[6] = test system: S. aureus DSM 20231; assay: as above
Summary of the method: as §2

[7] = test system: B. subtilis 168; assay: as above
Summary of the method: as §2

[8] = test system: S. pneumoniae D39V; assay: as above
Summary of the method: as §2
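For Bliss interaction score (quartile over a dose matrix) in this document: first quartile when negative (synergy) and third quartile when positive (antagonism).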

Cc1ncc([N+](=O)[O-])n1CCO [Metronidazole] + CCN(CC)CCOC(=O)c1ccc(N)cc1 [Procaine]
Conditions | Bliss interaction score
[1] | 0.0807
[2] | 0.0477
[3] | -0.0393
[4] | -0.0526

fitness
Conditions | partner 85.5 µg/mL | partner 171 µg/mL | partner 342 µg/mL
[5], first compound 0.625 µg/mL | 0.934 | 0.934 | 0.686
[5], first compound 1.25 µg/mL | 0.858 | 0.988 | –
[5], first compound 2.5 µg/mL | 0.814 | 0.876 | –
[6], first compound 0.625 µg/mL | 0.996 | ≥ 1 | ≥ 1
[6], first compound 1.25 µg/mL | 0.977 | ≥ 1 | ≥ 1
[6], first compound 2.5 µg/mL | 0.938 | ≥ 1 | ≥ 1
[7], first compound 0.625 µg/mL | 0.94 | 0.944 | 0.876
[7], first compound 1.25 µg/mL | 0.935 | 0.956 | 0.937
[7], first compound 2.5 µg/mL | 0.896 | 0.868 | 0.958
[8], first compound 1.073 µg/mL | 0.979 | 0.969 | 0.939
[8], first compound 2.145 µg/mL | 0.911 | 0.948 | 0.89
[8], first compound 4.29 µg/mL | 0.914 | 0.894 | 0.927

fitness, one replicate
Conditions | first compound 0.781 µg/mL | first compound 1.25 µg/mL | first compound 1.562 µg/mL | first compound 2.5 µg/mL | first compound 3.124 µg/mL | first compound 5 µg/mL
[5], partner 85.5 µg/mL | ≥ 1 | – | ≥ 1 | – | ≥ 1 | –
[5], partner 171 µg/mL | ≥ 1 | – | ≥ 1 | – | ≥ 1 | –
[5], partner 342 µg/mL | ≥ 1 | – | ≥ 1 | – | ≥ 1 | –
[8], partner 85.5 µg/mL | – | ≥ 1 | – | ≥ 1 | – | 0.979
[8], partner 171 µg/mL | – | ≥ 1 | – | ≥ 1 | – | ≥ 1
[8], partner 342 µg/mL | – | 0.952 | – | ≥ 1 | – | 0.95

Cc1ncc([N+](=O)[O-])n1CCO [Metronidazole] + CN1C2=CC=CC=C2N=C3C1=CC=CC3=O [Pyocyanin]
Conditions | Bliss interaction score
[1] | 0.0796
[2] | 0.0663
[3] | -0.0539
[4] | 0.0391

Conditions | fitness
[5], first compound 0.625 µg/mL, partner 1.25 µg/mL | 0.881
[5], first compound 0.625 µg/mL, partner 2.5 µg/mL | 0.831
[5], first compound 1.25 µg/mL, partner 1.25 µg/mL | 0.905
[5], first compound 1.25 µg/mL, partner 2.5 µg/mL | 0.834
[5], first compound 2.5 µg/mL, partner 2.5 µg/mL | 0.802
[5], first compound 2.5 µg/mL, partner 5 µg/mL | 0.258
[6], first compound 0.625 µg/mL, partner 1.25 µg/mL | 0.948
[6], first compound 0.625 µg/mL, partner 2.5 µg/mL | 0.916
[6], first compound 0.625 µg/mL, partner 5 µg/mL | 0.621
[6], first compound 1.25 µg/mL, partner 1.25 µg/mL | 0.996
[6], first compound 1.25 µg/mL, partner 2.5 µg/mL | 0.97
[6], first compound 1.25 µg/mL, partner 5 µg/mL | 0.645
[6], first compound 2.5 µg/mL, partner 1.25 µg/mL | ≥ 1
[6], first compound 2.5 µg/mL, partner 2.5 µg/mL | 0.961
[6], first compound 2.5 µg/mL, partner 5 µg/mL | 0.686
[7], first compound 0.625 µg/mL, partner 1.25 µg/mL | 0.886
[7], first compound 0.625 µg/mL, partner 2.5 µg/mL | 0.867
[7], first compound 0.625 µg/mL, partner 5 µg/mL | 0.75
[7], first compound 1.25 µg/mL, partner 1.25 µg/mL | 0.884
[7], first compound 1.25 µg/mL, partner 2.5 µg/mL | 0.899
[7], first compound 1.25 µg/mL, partner 5 µg/mL | 0.743
[7], first compound 2.5 µg/mL, partner 1.25 µg/mL | 0.884
[7], first compound 2.5 µg/mL, partner 2.5 µg/mL | 0.896
[7], first compound 2.5 µg/mL, partner 5 µg/mL | 0.719
[8], first compound 1.073 µg/mL, partner 0.325 µg/mL | ≥ 1
[8], first compound 1.073 µg/mL, partner 0.65 µg/mL | ≥ 1
[8], first compound 1.073 µg/mL, partner 1.3 µg/mL | 0.795
[8], first compound 2.145 µg/mL, partner 0.325 µg/mL | 0.958
[8], first compound 2.145 µg/mL, partner 0.65 µg/mL | 0.98
[8], first compound 2.145 µg/mL, partner 1.3 µg/mL | 0.731
[8], first compound 4.29 µg/mL, partner 0.325 µg/mL | 0.98
[8], first compound 4.29 µg/mL, partner 0.65 µg/mL | 0.95
[8], first compound 4.29 µg/mL, partner 1.3 µg/mL | 0.815

fitness, one replicate
Conditions | first compound 0.781 µg/mL | first compound 1.25 µg/mL | first compound 1.562 µg/mL | first compound 2.5 µg/mL | first compound 3.124 µg/mL | first compound 5 µg/mL
[5], partner 1.25 µg/mL | 0.808 | – | 0.785 | – | 0.771 | –
[5], partner 2.5 µg/mL | 0.795 | – | 0.768 | – | 0.78 | –
[5], partner 5 µg/mL | 0.376 | – | 0.425 | – | 0.418 | –
[8], partner 0.325 µg/mL | – | ≥ 1 | – | ≥ 1 | – | ≥ 1
[8], partner 0.65 µg/mL | – | ≥ 1 | – | ≥ 1 | – | ≥ 1
